Reference: patent US8796259B2, “N3-heteroaryl substituted triazoles and N5-heteroaryl substituted triazoles useful as axl inhibitors” (Rigel Pharmaceuticals, Inc., priority 2006, dated 2014)

These compounds were tested against T1, Axl (Homo sapiens, UniProt P30530) (assay: Phospho-Akt in-cell Western assay (inhibition of Axl activity, Axl-antibody cross-linking stimulation)). Details: Hela cells, phospho-Akt readout; compounds of formula (Ia), Table 1.
T1 construct: endogenous in cells; host or cells: HeLa cells
T1 sequence (P30530 26-894): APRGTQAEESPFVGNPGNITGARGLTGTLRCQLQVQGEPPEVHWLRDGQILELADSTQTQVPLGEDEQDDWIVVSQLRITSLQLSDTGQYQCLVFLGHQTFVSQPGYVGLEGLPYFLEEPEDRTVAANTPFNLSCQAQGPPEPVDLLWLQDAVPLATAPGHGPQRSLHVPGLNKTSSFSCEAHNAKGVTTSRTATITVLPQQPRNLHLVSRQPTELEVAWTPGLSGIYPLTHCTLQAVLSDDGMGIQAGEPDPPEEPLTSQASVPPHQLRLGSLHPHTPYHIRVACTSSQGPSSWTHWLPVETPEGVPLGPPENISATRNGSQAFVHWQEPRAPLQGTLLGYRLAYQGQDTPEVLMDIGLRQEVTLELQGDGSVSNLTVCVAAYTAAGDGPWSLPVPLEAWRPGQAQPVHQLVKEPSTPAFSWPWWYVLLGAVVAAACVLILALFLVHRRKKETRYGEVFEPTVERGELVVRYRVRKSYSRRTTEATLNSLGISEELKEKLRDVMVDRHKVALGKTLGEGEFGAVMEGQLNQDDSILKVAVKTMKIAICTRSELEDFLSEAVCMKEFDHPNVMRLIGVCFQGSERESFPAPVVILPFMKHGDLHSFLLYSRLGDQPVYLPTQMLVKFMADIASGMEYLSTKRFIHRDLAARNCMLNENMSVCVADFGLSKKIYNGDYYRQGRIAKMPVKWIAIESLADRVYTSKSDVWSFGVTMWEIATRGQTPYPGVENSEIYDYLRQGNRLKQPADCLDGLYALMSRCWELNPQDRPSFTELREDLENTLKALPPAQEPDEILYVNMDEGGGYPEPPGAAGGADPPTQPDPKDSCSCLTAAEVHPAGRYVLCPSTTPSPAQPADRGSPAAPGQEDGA
Type: cell-based
In short: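 HeLa cells on poly-L-lysine were starved 24 h in 0.5% FCS/DMEM with 500 ng/mL Axl/Fc, pre-treated with compound 1 h at 37 °C, then stimulated 5 min by cross-linked mouse anti-Axl/biotin anti-mouse antibody clusters. After formaldehyde fixation, phospho-Akt was detected by rabbit anti-phospho-Akt and HRP secondary with chemiluminescence read-out.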
With `COc1cc2ncnc(-n3nc(Nc4ccc(N5CCC(N6CCCC6)CC5)nc4)nc3N)c2cc1OC` [compound 23, 1-(6,7-dimethoxy-quinazoline-4-yl)-N^3-(6-(4-pyrrolidin-1-ylpiperidin-1-yl)pyridine-3-yl)-1H-1,2,4-triazole-3,5-diamine] the IC50 was < 1000 nM.
With `COc1cc2ncnc(-n3nc(Nc4ccc(N5CCN(CC6CC6)[C@@H](C)C5)nc4)nc3N)c2cc1OC` [compound 114, 1-(6,7-dimethoxy-quinazoline-4-yl)-N^3-(2-(4-cyclo-propylmethyl-3-(S)-methyl-piperazin-1-yl)pyridin-5-yl)-1H-1,2,4-triazole-3,5-diamine] the IC50 was < 1000 nM.
For `Cc1csc2c(-n3nc(Nc4cnc5c(c4)CC(N4CCCC4)CC5)nc3N)ncnc12` (stereo not shown) [compound 85, 1-(7-methylthieno [3,2-d]pyrimidin-4-yl)-N^3-(6-pyrrolidin-1-yl-5,6,7,8-tetrahydro-quinolin-3-yl)-1H-1,2,4-triazole-3,5-diamine], the IC50 was < 1000 nM.
`Cc1csc2c(-n3nc(Nc4ccc(C5CCN(C6CC7CCC6C7)CC5)nc4)nc3N)ncnc12` (stereo not shown) [compound 88, 1-(7-methylthieno [3,2-d]pyrimidine-4-yl)-N^3-(6-(1-bicyclo [2.2.1]heptan-2-ylpiperidin-4-yl)pyridine-3-yl)-1H-1,2,4-triazole-3,5-diamine] was tested, and the IC50 was < 1000 nM.
With `Cc1csc2c(-n3nc(Nc4ccc(Br)nc4)nc3N)ncnc12` [compound 118, 1-(7-methylthieno [3,2-d]pyrimidin-4-yl)-N^3-(2-bromopyridin-5-yl)-1H-1,2,4-triazole-3,5-diamine] the IC50 was > 20000 nM.
`Cc1csc2c(-n3nc(Nc4ccc(N5CCN(C6CC6)CC5)nc4)nc3N)nc(Cl)nc12` [compound 68, 1-(2-chloro-7-methylthieno [3,2-d]pyrimidin-4-yl)-N^3-(6-(4-cyclopropyl-piperazin-1-yl)pyridin-3-yl)-1H-1,2,4-triazole-3,5-diamine] was tested, and the IC50 was < 1000 nM.
In the case of `CN1CCN(c2ccc(Nc3nc(N)n(-c4nccc5ccccc45)n3)cn2)CC1` [compound 31, 1-(isoquinolin-1-yl)-N^3-(6-(4-methyl-piperazin-1-yl)pyridin-3-yl)-1H-1,2,4-triazole-3,5-diamine], the IC50 is reported as < 1000 nM.
`COc1cc2ncnc(-n3nc(Nc4ccc(N5CCCN(C6CC7CCC6C7)CC5)nc4)nc3N)c2cc1OC` (stereo not shown) [compound 47, 1-(6,7-dimethoxy-quinazoline-4-yl)-N^3-(6-(4-(bicyclo [2.2.1]heptan-2-yl)-1,4-diazepan-1-yl)pyridin-3-yl)-1H-1,2,4-triazole-3,5-diamine] was tested, and the IC50 was < 1000 nM.
With `Cc1csc2c(-n3nc(Nc4ccc(N5CCC(N6CCCCCC6)CC5)nc4)nc3N)nc(Cl)nc12` [compound 35, 1-(2-chloro-7-methylthieno [3,2-d]pyrimidin-4-yl)-N^3-(6-(4-(azepan-1-yl)piperidin-1-yl)pyridin-3-yl)-1H-1,2,4-triazole-3,5-diamine] the IC50 was < 1000 nM.
In the case of `Cc1csc2c(-n3nc(Nc4ccc(N5CCN(CC6CC6)CC5)nc4)nc3N)nc(Cl)nc12` [compound 48, 1-(2-chloro-7-methylthieno [3,2-d]pyrimidin-4-yl)-N^3-(6-(4-cyclopropyl-methyl-piperazin-1-yl)pyridin-3-yl)-1H-1,2,4-triazole-3,5-diamine], the IC50 is reported as < 1000 nM.
`COc1cc2ncnc(-n3nc(Nc4ccc5sc(C(=O)N6CCN(CCN(C)C)CC6)cc5c4)nc3N)c2cc1OC` [compound 40, 1-(6,7-dimethoxy-quinazoline-4-yl)-N^3-(2-(1-(4-(2-(dimethyl-amino)ethyl)piperazin-1-yl)oxomethyl)benzo[b]thio-phen-5-yl)-1H-1,2,4-triazole-3,5-diamine] was tested, and the IC50 was 1000 to 10000 nM.
In the case of `Cc1cc(Nc2nc(N)n(-c3ncnc4c(C)csc34)n2)cnc1N1CCN([C@H]2C[C@@H]3CC[C@H]2C3)[C@@H](C)C1` [compound 106, 1-(7-methylthieno [3,2-d]pyrimidin-4-yl)-N^3-(2-(3-(S)-methyl-4-(1S,2S,4R)-bicyclo[2.2.1]heptan-2-ylpiperazin-1-yl)-3-methylpyridin-5-yl)-1H-1,2,4-triazole-3,5-diamine], the IC50 is reported as < 1000 nM.
With `Cc1csc2c(-n3nc(Nc4ccc(N5CCN(C6CC7CCC6C7)CC5)nc4)nc3N)nc(Cl)nc12` (stereo not shown) [compound 24, 1-(2-chloro-7-methylthieno [3,2-d]pyrimidine-4-yl)-N^3-(6-(4-(bicyclo[2.2.1]heptan-2-yl)piperazin-1-yl)pyridin-3-yl)-1H-1,2,4-triazole-3,5-diamine] the IC50 was < 1000 nM.
With `Cc1csc2c(-n3nc(Nc4cnc5c(c4)CC(N4CCCC4)CC5)nc3N)nc(Cl)nc12` (stereo not shown) [compound 82, 1-(2-chloro-7-methylthieno [3,2-d]pyrimidin-4-yl)-N^3-(6-pyrrolidin-1-yl-5,6,7,8-tetrahydro-quinolin-3-yl)-1H-1,2,4-triazole-3,5-diamine] the IC50 was < 1000 nM.
With `COc1cc2ncnc(-n3nc(Nc4ccc(N5CCC(CN6CCCC6)CC5)nc4)nc3N)c2cc1OC` [compound 34] the IC50 was < 1000 nM.
In the case of `Cc1csc2c(-n3nc(Nc4cnc5c(c4)CC(NC4CCCC4)CC5)nc3N)nc(Cl)nc12` (stereo not shown) [compound 70, 1-(2-chloro-7-methylthieno [3,2-d]pyrimidin-4-yl)-N^3-(6-cyclopentyl-amino-5,6,7,8-tetrahydro-quinolin-3-yl)-1H-1,2,4-triazole-3,5-diamine], the IC50 is reported as < 1000 nM.
For `Cc1csc2c(-n3nc(Nc4cnc5c(c4)CC(NC(=O)CN(C)C)CC5)nc3N)nc(Cl)nc12` (stereo not shown) [compound 29, 1-(2-chloro-7-methylthieno [3,2-d]pyrimidin-4-yl)-N^3-(6-(2-(dimethyl-amino)-1-oxyethyl-amino)-5,6,7,8-tetrahydro-quinolin-3-yl)-1H-1,2,4-triazole-3,5-diamine], the IC50 was < 1000 nM.
With `CCN(CC)C1CCN(CC=Cc2ccc(Nc3nc(N)n(-c4ncnc5cc(OC)c(OC)cc45)n3)cn2)C1` (stereo not shown) [compound 78, 1-(6,7-dimethoxy-quinazoline-4-yl)-N^3-(6-(3-(3-(diethylamino)pyrrolidin-1-yl)propenyl)pyridin-3-yl)-1H-1,2,4-triazole-3,5-diamine] the IC50 was < 1000 nM.
`Cc1csc2c(-n3nc(Nc4ccc(N5CCC(N6CCCC6)CC5)nc4)nc3N)nc(Cl)nc12` [compound 17, 1-(2-chloro-7-methyithieno [3,2-d]pyrimidine-4-yl)-N^3-(6-(4-(pyrrolidin-1-yl)piperidin-1-yl)pyridine-3-yl)-1H-1,2,4-triazole-3,5-diamine] was tested, and the IC50 was < 1000 nM.
In the case of `Cc1csc2c(-n3nc(Nc4ccc(C=CCN5CCC(N6CCCCC6)CC5)nc4)nc3N)ncnc12` [compound 129, 1-(7-methylthieno [3,2-d]pyrimidin-4-yl)-N^3-(2-(3-(4-piperidin-1-ylpiperidin-1-yl)propen-1-yl)pyridin-5-yl)-1H-1,2,4-triazole-3,5-diamine], the IC50 is reported as < 1000 nM.
`Cc1csc2c(-n3nc(Nc4cnc5c(c4)CC(C(=O)N4CCCC4)CC5)nc3N)nc(Cl)nc12` (stereo not shown) [compound 20, 1-(2-chloro-7-methylthieno [3,2-d]pyrimidine-4-yl)-N^3-(6-(pyrrolidin-1ylcarbonyl)-5,6,7,8-tetrahydro-quinolin-3-yl)-1H-1,2,4-triazole-3,5-diamine] was tested, and the IC50 was < 1000 nM.
With `Cc1csc2c(-n3nc(Nc4cnc5c(c4)C4CC(N6CCCC6)CC4C5)nc3N)nc(Cl)nc12` (stereo not shown) [compound 64, 1-(2-chloro-7-methylthieno [3,2-d]pyrimidin-4-yl)-N^3-(6-(pyrrolidin-1-yl)-4b,5,6,7,7a,8-hexahydro-pentaleno[2,1-b]pyridin-3-yl)-1H-1,2,4-triazole-3,5-diamine] the IC50 was < 1000 nM.
